Values of other authors as cited in patent publication US6365128B1, “Monitoring gastrointestinal function to guide care of high risk patients” (Medical Defence Technologies, LLC, priority 1998, dated 2002).

Conditions: in vivo

SMILES: CSCC[C@H](NC(=O)[C@H](Cc1c[nH]c2ccccc12)NC(=O)CCNC(=O)OC(C)(C)C)C(=O)N[C@@H](CC(=O)O)C(=O)N[C@@H](Cc1ccccc1)C(N)=O [Pentagastrin, pentagastrin]
- half life: approximately 10 minutes
